One data set relates to male ICR mice. Nature of the data set: Acute Toxicity Test. The following applies: oral, 5 g/kg of body weight; observed for 7 days. The procedure:
Water, or an aqueous solution of N-Methyl-L-Serine (this was prepared to have a concentration of 5 g/kg of body weight of test animal, as a sample) was orally administered to male ICR mice (5 weeks-age; body weight, 24 to 28 g; 5 mice in one group), in an amount of […] of body weight.

Data set [1] deals with Normal human fibroblasts [CCD45SK (ATCC CRL 1506)]. Nature of the data set: Response to TGF-β1: TIMP production by normal human fibroblasts (Test Examples 12-13). The format is cell-based. The following applies: Test Example 12, 1 mM, 6 days, 3 ng/ml TGF-β1, 3 days. As for the experimental part: (§1) Normal human fibroblasts [CCD45SK (ATCC CRL 1506) as prepared from the skin of a person] were suspended at a cell density of 1×10^5 cells/ml in the MEM medium, comprising 10% (V/V) FBS and 1% (V/V) non-essential amino acids (produced by Dai-Nippon Pharmaceutical Co.). The suspended cells were seeded into each well of a 12-well plate in an amount of 0.8 ml/well (corresponding to 8×10^4 cells/well) and incubated in a saturated aqueous vapor with 5% CO2 at 37° C.

The test system of data set [2] is Japanese native, male house rabbits. The following applies: rabbit, in vivo. The procedure: Aqueous solutions of N-methyl-L-serine, ethanolamine and N-methylethanolamine that had been adjusted to have a pH 7 with hydrochloric acid were used as test samples.
Using Japanese native, male house rabbits (body weight: about 3 kg), the test samples were tested according to the above-mentioned the Draize method.
Precisely, the back of each rabbit was shaven and rubbed to form a scratched site (scratched skin). An adhesive tape for patch test (1.2×1.6 cm; Ribbon Aid, registered trade mane, produced by River Tape Chemicals Co.) as wetted with 0.1 ml of water, or 0.1 ml of an aqueous 1% (W/V) solution of the test compound was stuck onto the scratched skin and the normal skin. […] In addition, 48 hours after the peeling of the tape, the condition of the skin was also observed.
The scores as referred to in Table 21 were obtained, and the primary stimulation score was calculated according to the following equation.
Primary Stimulation Score=[(A+B)/2]+[(C+D)/2]+[(E+F)/2]+[(G+H)/2]
Next, from the primary stimulation scores, obtained was the degree of stimulation with N-Methyl-L-Serine or Ethanolamine or N-Methylethanolamineaccording to the criteria shown in Table 22 below.

Data set [3] deals with Normal human fibroblasts [CCD45SK (ATCC CRL 1506)]. Nature of the data set: Response to PDGF: procollagenase production by normal human fibroblasts (Test Example 11). The following applies: 1 mM, 6 days, 30 ng/ml PDGF-BB. The format is cell-based. As for the experimental part:
as §1

Data set [4] deals with Japanese native, male house rabbits. The following applies: rabbit, in vivo. The procedure: Aqueous solutions of N-Methyl-L-Serine, Ethanolamine and N-Methylethanolamine that had been adjusted to have a pH of 7 with hydrochloric acid were used as test samples.
Using Japanese native, male house rabbits (body weight: about 3 kg), the test samples were tested according to the Draize method (see Appraisal of the Safety of Chemicals in Foods, Drugs and Cosmetics, p. 46, 1959, edited and published by the Deitorial Committee, Association of Food and Drug Officials of U.S.A.).
24 hours after the last application, the tested area of each rabbit was checked to score the erythema, edema, scab and rhagades, if any, formed in the area.
The erythema score, the edema score, the scab score, and the rhagades score as referred to in Table 17 were summed up to obtain the cumulative stimulation score.
Next, from the cumulative stimulation scores, obtained were the degrees of stimulation with N-Methyl-L-Serine, Ethanolamine and N-Methylethanolamine,according to the criteria shown in Table 18 below.
This is another data set of the same source.

The test system of the next data set is healthy panelists. The following applies: in vivo. The procedure:
Aqueous solutions of N-methyl-L-serine, ethanolamine and N-methylethanolamine that had been adjusted to have a pH 7 with hydrochloric acid were used as test samples. These test samples were applied to 19 healthy panelists.
One hour and 24 hours after the removal of the patch, the condition of the skin of each panelist was observed.

Take `CN[C@@H](CO)C(=O)O` [Example 1, N-methyl-L-serine]: the deaths of mice entry with male ICR mice was “No mice of the test group to which N-Methyl-L-Serine was administered died”. The activity at 1000 µM stood at 240% in data set [1] (Homo sapiens, Fibroblast, control = 100, read-out: Response to TGF-β1 Increment) and 690% in data set [3] (Homo sapiens, Fibroblast, 144 h, control = 100, read-out: Response to PDGF Increment). Moreover, the “TIMP Production” value in data set [1] (mean ± SD, n = 3) amounted to 240 ± 21 unit/ml. Also, in data set [2], the “Primary Stimulation Score” value was found to be 0. Besides, the “stimulation to the skin (in words)” value in data set [2] was “low”. Moreover, in data set [3] (mean ± SD, n = 3), the “Procollagenase Production” value is recorded as 4.2 ± 2.0 unit/ml. Besides, in data set [4], the “cumulative stimulation to the skin (in words)” value is “low”. The panelists with erythema result with healthy panelists is recorded as “only one panelists had minor erythema”.

(Values after patent US6008188A, “Cytokine potentiator and pharmaceutical formulation for cytokine administration” (Kanebo Limited, priority 1994, dated 1999).)
